According to patent publication US20230121611A1, “Monohydrate Salt of Denatonium Acetate” (priority 2021, published 2023):
“Also recorded” adds a separate entry of the source.

Columns and labels:
[1] = Form stability of further XRPD patterns on storage or standing (reanalysis by XRPD); assay type: physicochemical; settings: for XRPD form after standing on disc for 4 hours / XRPD form after standing overnight on disc: ambient lab conditions; for XRPD form after standing on disc for 4 hours: 4 hours on XRPD disc; for XRPD form after standing overnight on disc: room temperature
Source text: (§1) It was then removed from the instrument and a portion immediately analyzed by XRPD.
The frozen sample was lyophilized on the freeze dryer until all the solvent was removed. […] This was designated as Pattern 2.
A summary of the characterization data for the samples of Pattern 5 can be found in Table 9.

[2] = assay type: physicochemical
Method: Next, methyl isobutyl ketone was added and then water. In some embodiments, a lower alkyl isobutyl ketone is used in place of methyl isobutyl ketone. In some embodiments, the lower alkyl is a C1-3 alkyl. In some embodiments, the lower alkyl is methyl or ethyl. The temperature was lowered to <10° C. The remaining solid was isolated and washed with methyl isobutyl ketone to produce the final DAM (denatonium acetate monohydrate).

[3] = Gravimetric Vapor Sorption (GVS) experiments; assay type: physicochemical
Method: Several Gravimetric Vapor Sorption (GVS) experiments were carried out to investigate the behavior of DAM over a range of different relative humidity levels. […] This experiment used a similar method to GVS 1 without the steps involving 90% RH where the large mass changes were observed and equilibrium was not reached. […] Most of the mass change (1.3-1.4% increase) occurred between 0-10% RH.

[4] = Storage under stress conditions (temperature / relative humidity); assay type: physicochemical; settings: for UPLC purity after storage: input purity 99.5%
Source text: It also lost mass when taken to relative humidity levels of less than 10%.
It also loses mass when taken to relative humidity levels of less than 10%.
as §1

In the case of `CC(=O)[O-].CC[N+](CC)(CC(=O)Nc1c(C)cccc1C)Cc1ccccc1.O` [DAM Pattern 4], the “XRPD form after storage in closed vial” value ([1]; 6 weeks) is reported as “Conversion to Pattern 1 by XRPD” and the “XRPD form after storage in closed vial” value ([1]; 6 weeks, listed as Pattern 4) is reported as “conversion to Pattern 1”.
For `CC(=O)[O-].CC[N+](CC)(CC(=O)Nc1c(C)cccc1C)Cc1ccccc1` [DAA, Denatonium Acetate, anhydrous], the degradation products [2] was “either (A) lidocaine and benzyl acetate or it degraded to (B) 2-(diethylamino)-3-phenyl-N-(2,6-dimethylphenylpropionamide”.
For `CC(=O)[O-].CC[N+](CC)(CC(=O)Nc1c(C)cccc1C)Cc1ccccc1.O` [DAM Pattern 2], the “XRPD form after storage in closed vial” value ([1]; 7 weeks) was “Conversion to Pattern 1 by XRPD” and the “XRPD form after storage in closed vial” value ([1]; 7 weeks, listed as Pattern 2) was “converted to Pattern 1; also recorded: consistent with Pattern 1”.
With `CC(=O)[O-].CC[N+](CC)(CC(=O)Nc1c(C)cccc1C)Cc1ccccc1` [DAM, denatonium acetate monohydrate] the mass change ([3]; GVS 2, between 0-10% RH) was 1.4%, the mass change ([3]; GVS 3, between 0-10% RH) was 1.3-1.4% and the “sample appearance after GVS” value ([3]; after GVS 1 (40-90-0-90-0-40)) was “sorption cycle. Sample had formed a solid mass with powdery”. The “sample appearance after GVS” value ([3]; after GVS 2 (40-80-0-80-0-40), acetate monohydrate) was “remained as a free-flowing powder; also recorded: Sample remained free flowing solid”, the “sample appearance after GVS” value ([3]; after GVS 3 (40-0-80-0-80-0-40), acetate monohydrate) was “remained as a free-flowing powder; also recorded: Sample remained free flowing solid” and the “XRPD post GVS” value ([3]; post GVS 1, 2, 3) was “Shows no change in form by XRPD post GVS 1, 2, 3”. For the same compound, the “XRPD post GVS” value ([3]; post GVS 2) was “consistent with Pattern 1”, the “XRPD post GVS” value ([3]; post GVS 3) was “consistent with Pattern 1” and the hygroscopicity ([3]; relative humidity levels above 80%, acetate monohydrate) was “ED21356-001-001-00 is very hygroscopic especially at levels”. For the same compound, the “mass behaviour at low humidity” value ([3]; relative humidity levels of less than 10%, acetate monohydrate) was “lost mass; also recorded: loses mass”, the “XRPD form after storage at 0% RH” value ([4]; 0% RH, open vial in GVS instrument, 2 days, acetate monohydrate) was “converted to Pattern 5; also recorded: consistent with Pattern 5; also recorded: change in form to Pattern 5” and the observation after storage ([4]; 25° C., 96% RH, 5 days, acetate monohydrate) was “deliquesce; also recorded: Sample had deliquesced”. For the same compound, the XRPD after storage ([4]; 25° C., 96% RH, 7 days) was “Amorphous”, the observation after storage ([4]; 25° C., 96% RH, 7 days) was “deliquesced” and the “UPLC purity after storage” value ([4]; 25° C., 96% RH, 7 days) was “UPLC purity 98.9%”. The XRPD after storage ([4]; 40° C., 75% RH, 7 days) was “Shows no change in form by XRPD after 7 days”, the “UPLC purity after storage” value ([4]; 40° C., 75% RH, 7 days) was “UPLC purity 99.4%” and the observation after storage ([4]; 40° C., 75% RH, after 5 and 7 days) was “Remained a solid after 5 and 7 days”.
For `CC(=O)[O-].CC[N+](CC)(CC(=O)Nc1c(C)cccc1C)Cc1ccccc1.O` [DAM Pattern 5], the “XRPD form after standing on disc for 4 hours” value [1] was “Conversion to Pattern 1 by XRPD”, the “XRPD form after standing on disc for 4 hours” value ([1]; listed as Pattern 5) was “readily convert to Pattern 1; also recorded: conversion to Pattern 1; also recorded: converted to Pattern 1; also recorded: reverted to Pattern 1” and the “stability of the pattern” value ([1]; ambient laboratory conditions) was “metastable”. The “XRPD form after storage in closed vial” value ([1]; 6 weeks, listed as Pattern 5) was “converted to Pattern 1”, the “XRPD form after standing overnight on disc” value [1] was “Conversion to Pattern 1 by XRPD” and the “XRPD form after standing overnight on disc” value ([1]; listed as Pattern 5) was “convert to Pattern 1; also recorded: reverted to Pattern 1”. The “XRPD form under ambient laboratory conditions” value ([1]; within a few hours) was “converts to Pattern 1”.
